Measured values published in ChEMBL document CHEMBL1201862, “PubChem BioAssay data set” (2004).
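96-well plates; 48 h exposure; 5 concentrations. Endpoints by linear interpolation between flanking doses. Not reached: highest tested concentration assigned. GI50: concentration for 50% inhibition of growth.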 Calls of active or inactive are those of the source. Cut-off read from the data, not from the text of the source: active = GI50 up to about 1.1 µM and inactive = higher.

Legend:
Test in all cases: DTP human tumour cell line panel, 48 h
NCI-H226 = test system: NCI-H226
SK-OV-3 = test system: SK-OV-3
M19-MEL = test system: M19-MEL
DMS-273 = test system: DMS-273
OVCAR-4 = test system: OVCAR-4
SW-620 = test system: SW-620
SK-MEL-5 = test system: SK-MEL-5
SNB-78 = test system: SNB-78
HOP-62 = test system: HOP-62
SNB-75 = test system: SNB-75
DMS-114 = test system: DMS-114
HCC 2998 = test system: HCC 2998
EKVX = test system: EKVX
RXF 631 = test system: RXF 631
MOLT-4 = test system: MOLT-4
NCI-H23 = test system: NCI-H23
NCI-H460 = test system: NCI-H460
RXF 393 = test system: RXF 393
OVCAR-3 = test system: OVCAR-3
UO-31 = test system: UO-31
SF-268 = test system: SF-268
HCT-116 = test system: HCT-116
CCRF-CEM = test system: CCRF-CEM
HOP-18 = test system: HOP-18
DLD-1 = test system: DLD-1
OVCAR-8 = test system: OVCAR-8
SN12C = test system: SN12C
U-251 = test system: U-251
HL-60 = test system: HL-60
786-0 = test system: 786-0
CAKI-1 = test system: CAKI-1
KM12 = test system: KM12
M14 = test system: M14
A498 = test system: A498
A549 = test system: A549
SK-MEL-2 = test system: SK-MEL-2
SK-MEL-28 = test system: SK-MEL-28
SR = test system: SR
LOX IMVI = test system: LOX IMVI
ACHN = test system: ACHN
SNB-19 = test system: SNB-19
TK-10 = test system: TK-10
HCT-15 = test system: HCT-15
UACC-62 = test system: UACC-62
SF-295 = test system: SF-295
IGROV-1 = test system: IGROV-1
NCI-H522 = test system: NCI-H522
UACC-257 = test system: UACC-257
COLO 205 = test system: COLO 205
K562 = test system: K562
OVCAR-5 = test system: OVCAR-5
RPMI-8226 = test system: RPMI-8226
SF-539 = test system: SF-539
Malme-3M = test system: Malme-3M
LXFL 529 = test system: LXFL 529
HT-29 = test system: HT-29
KM-20L2 = test system: KM-20L2
HOP-92 = test system: HOP-92
XF498 = test system: XF498

## CC(=O)c1ccc(NC(=O)/C(Cc2ccccn2)=N/NC(=O)C[N+](C)(C)C)cc1
NCI-H226
  GI50: > 100 µM (inactive)
SK-OV-3
  GI50: > 100 µM (inactive)
M19-MEL
  GI50: > 100 µM (inactive)
DMS-273
  GI50: > 100 µM (inactive)
OVCAR-4
  GI50: > 100 µM (inactive)
SW-620
  GI50: > 100 µM (inactive)
SK-MEL-5
  GI50: > 100 µM (inactive)
SNB-78
  GI50: > 100 µM (inactive)
HOP-62
  GI50: > 100 µM (inactive)
SNB-75
  GI50: > 100 µM (inactive)
DMS-114
  GI50: > 100 µM (inactive)
HCC 2998
  GI50: > 100 µM (inactive)
EKVX
  GI50: > 100 µM (inactive)
RXF 631
  GI50: > 100 µM (inactive)
MOLT-4
  GI50: > 100 µM (inactive)
NCI-H23
  GI50: > 100 µM (inactive)
NCI-H460
  GI50: > 100 µM (inactive)
RXF 393
  GI50: > 100 µM (inactive)
OVCAR-3
  GI50: > 100 µM (inactive)
UO-31
  GI50: > 100 µM (inactive)
SF-268
  GI50: > 100 µM (inactive)
HCT-116
  GI50: > 100 µM (inactive)
CCRF-CEM
  GI50: > 100 µM (inactive)
HOP-18
  GI50: > 100 µM (inactive)
DLD-1
  GI50: > 100 µM (inactive)
OVCAR-8
  GI50: > 100 µM (inactive)
SN12C
  GI50: > 100 µM (inactive)
U-251
  GI50: > 100 µM (inactive)
HL-60
  GI50: > 100 µM (inactive)
786-0
  GI50: > 100 µM (inactive)
CAKI-1
  GI50: > 100 µM (inactive)
KM12
  GI50: > 100 µM (inactive)
M14
  GI50: > 100 µM (inactive)
A498
  GI50: > 100 µM (inactive)
A549
  GI50: > 100 µM (inactive)
SK-MEL-2
  GI50: > 100 µM (inactive)
SK-MEL-28
  GI50: > 100 µM (inactive)
SR
  GI50: > 100 µM (inactive)
LOX IMVI
  GI50: > 100 µM (inactive)
ACHN
  GI50: > 100 µM (inactive)
SNB-19
  GI50: > 100 µM (inactive)
TK-10
  GI50: > 100 µM (inactive)
HCT-15
  GI50: > 100 µM
UACC-62
  GI50: > 100 µM (inactive)
SF-295
  GI50: > 100 µM (inactive)
IGROV-1
  GI50: > 100 µM (inactive)
NCI-H522
  GI50: > 100 µM (inactive)
UACC-257
  GI50: > 100 µM (inactive)
COLO 205
  GI50: > 100 µM (inactive)
K562
  GI50: > 100 µM (inactive)
OVCAR-5
  GI50: > 100 µM (inactive)
RPMI-8226
  GI50: > 100 µM (inactive)
SF-539
  GI50: > 100 µM (inactive)
Malme-3M
  GI50: > 100 µM (inactive)
LXFL 529
  GI50: > 100 µM (inactive)
HT-29
  GI50: > 100 µM (inactive)
KM-20L2
  GI50: > 100 µM (inactive)

## CS(=O)(=O)OCCCOS(C)(=O)=O
NCI-H226
  GI50: > 100 µM (inactive)
SK-OV-3
  GI50: > 100 µM (inactive)
HOP-92
  GI50: > 100 µM (inactive)
M19-MEL
  GI50: > 100 µM (inactive)
DMS-273
  GI50: > 100 µM (inactive)
OVCAR-4
  GI50: > 100 µM (inactive)
SW-620
  GI50: > 100 µM (inactive)
SK-MEL-5
  GI50: > 100 µM (inactive)
SNB-78
  GI50: > 100 µM (inactive)
HOP-62
  GI50: > 100 µM (inactive)
SNB-75
  GI50: > 100 µM (inactive)
DMS-114
  GI50: > 100 µM (inactive)
HCC 2998
  GI50: > 100 µM (inactive)
EKVX
  GI50: > 100 µM (inactive)
MOLT-4
  GI50: > 100 µM (inactive)
NCI-H23
  GI50: > 100 µM (inactive)
NCI-H460
  GI50: > 100 µM (inactive)
RXF 393
  GI50: > 100 µM (inactive)
OVCAR-3
  GI50: > 100 µM (inactive)
UO-31
  GI50: > 100 µM (inactive)
SF-268
  GI50: > 100 µM (inactive)
HCT-116
  GI50: > 100 µM (inactive)
CCRF-CEM
  GI50: > 100 µM (inactive)
HOP-18
  GI50: > 100 µM (inactive)
DLD-1
  GI50: > 100 µM (inactive)
OVCAR-8
  GI50: > 100 µM (inactive)
SN12C
  GI50: > 100 µM (inactive)
U-251
  GI50: > 100 µM (inactive)
HL-60
  GI50: > 100 µM (inactive)
786-0
  GI50: > 100 µM (inactive)
KM12
  GI50: > 100 µM (inactive)
M14
  GI50: > 100 µM (inactive)
A498
  GI50: > 100 µM (inactive)
A549
  GI50: > 100 µM (inactive)
SK-MEL-2
  GI50: > 100 µM (inactive)
SK-MEL-28
  GI50: > 100 µM (inactive)
SR
  GI50: > 100 µM (inactive)
LOX IMVI
  GI50: > 100 µM (inactive)
ACHN
  GI50: > 100 µM (inactive)
SNB-19
  GI50: > 100 µM (inactive)
TK-10
  GI50: > 100 µM (inactive)
HCT-15
  GI50: > 100 µM
UACC-62
  GI50: > 100 µM (inactive)
SF-295
  GI50: > 100 µM (inactive)
IGROV-1
  GI50: > 100 µM (inactive)
NCI-H522
  GI50: > 100 µM (inactive)
XF498
  GI50: > 100 µM (inactive)
UACC-257
  GI50: > 100 µM (inactive)
COLO 205
  GI50: > 100 µM (inactive)
K562
  GI50: > 100 µM (inactive)
OVCAR-5
  GI50: > 100 µM (inactive)
RPMI-8226
  GI50: > 100 µM (inactive)
SF-539
  GI50: > 100 µM (inactive)
Malme-3M
  GI50: > 100 µM (inactive)
LXFL 529
  GI50: > 100 µM (inactive)
HT-29
  GI50: > 100 µM (inactive)
KM-20L2
  GI50: > 100 µM (inactive)
